In patent US20240109877A1, “PYRIMIDINES FOR DEGRADING BRUTON'S TYROSINE KINASE” (AbbVie Inc., priority 2022, published 2024):

Assays:
[1] = biological target: BTK protein in human whole blood (Homo sapiens (Human), UniProt Q06187); test: Btk protein in human whole blood MSD ELISA based assay (Btk degradation); format: cell-based; details: human whole blood from healthy donors, 6 hours at 37° C., half maximal degradation concentration; read-out: hWB BTK DC50
Protocol: Btk protein degradation was tested using an Meso Scale Discovery-ELISA system (MSD-ELISA): (1) Test compounds were added to human whole blood; (2) human whole blood cells treated with test compounds were lysed; (3) lysed cells were treated with capture antibody, an antibody to Btk; (4) lysed cells were treated with […] to Btk; and (5) lysed cells were treated with anti-mouse antibody (tagged).
Specifically, about 80 μl of fresh human whole blood from healthy donors was transferred into each well of a 96-well V-bottom plate (Costar, Cat No.3894). Using a TECANTM D300e Digital Dispenser (Tecan)), 1:4 serially diluted compounds [(8 pt assay) in DMSO solution (final 0.2%) starting at 3 μM top concentration], were added in duplicate. Thereafter, plates were placed in a 37° C. incubator and incubated for 6 hours.
At the end of incubation, 80 μl of 2× CST lysis buffer (Cell Signaling Technology, Cat No. 9803), prepared from a 10× stock solution, was added per well to lyse the blood. Plates were then sealed with a plate sealer and the samples were frozen overnight at −80° C.
Total amount of BTK protein remaining in the blood samples after compound treatment was measured using MSD-ELISA. After thawing the frozen plates, blood lysates were mixed thoroughly and transferred to small spot high-bind MSD plates (Meso Scale Discovery, Cat No. L45XB-3) and coated with capturing antibody, rabbit anti-human BTK (D3H5) (Cell Signaling Technology, Cat No. 8547CF). Thereafter, primary detection antibody, mouse anti-human BTK monoclonal antibody, (BD Biosciences, Cat No. 611117) and secondary detection antibody, anti-mouse SULFO-TAG (Meso Scale Discovery, Cat No. R32AC-1) were added. The assay plates were read on an MSD S600 plate reader by the addition of 2× MSD read buffer (Meso Scale Discovery, R92TC-1). All reagent transfers, including blood lysis, was conducted using a Biomed i7 liquid handler. From the dose response curves, DC50 values were calculated by averaging data from duplicate experiments. and Curve fitting was done by non-linear regression using GraphPad Prism. The DC50 values are reported in Table 2 in the hWB BTK DC50 (nM) column The Dmax values represent the maximum amount of BTK degradation observed upon compound treatment compared to DMSO only treated samples. The dMax (%) values are reported in Table 2 in the hWB BTK dMax (%) column.

[2] = biological target: His-tagged Cereblon/DDB1 complex (Homo sapiens (Human), UniProt Q96SW2); test: Cereblon Binding Assay (AlphaLISA Human Cereblon Binding Kit, competition); details: 10 μM top dose, biotin-labeled ligand competition; read-out: CRBN IC50
Protocol: Cereblon binding was measured in vitro using an AlphaLISA® Human Cereblon Binding Kit (PerkinElmer, Waltham, MA) according to the manufacturer's protocol (“Alpha” refers to Amplified Luminescent Proximity Homogeneous Assay). In this assay, donor beads and acceptor beads come into proximity through ligand binding to CRBN protein. Excitation of the donor beads provokes the release of singlet oxygen that triggers a cascade of energy transfer reactions to the acceptor beads, resulting in a sharp peak in light emission at 615 nm.
Specifically, nickel chelate acceptor beads (PerkinElmer AL108M) were used to capture a 6XHIS-tagged CRBN protein, and streptavidin-coated donor beads (PerkinElmer 6760002) were used to capture 50 nM biotinylated ligand. Each well included the following: sample or control; HIS-tagged CRBN protein; biotinylated ligand; nickel chelate acceptor beads; and streptavidin donor beads.
Competition Assay: Test compounds in 100% dimethyl sulfoxide were plated onto white, low volume 384 well plates (PerkinElmer Proxiplate 384 plus # 6008289) using an Labcyte Echo acoustic dispenser, in an 11-point dose curve and 3-fold dilution scheme. […] Plates were incubated for 30 minutes at room temperature.
Detection: 10 μL detection reagents were added in low light conditions containing nickel chelate acceptor beads and streptavidin donor beads (Perkin Elmer 6760002), resulting in a final concentration 20 ng/ml. Plates were incubated 1 hour and read on a PerkinElmerTM Envision™ plate reader (680 nm excitation and […] settings). The IC50 of each compound was determined by calculating percent inhibition from no drug and no protein controls, and the Ki of each compound was calculated using the Cheng-Prusoff transformation. From the IC50 values were determined. The IC50 values are reported in Table 2 in the CRBN IC50 (nM) column.

SMILES | DC50 [1] | IC50 [2]
Cc1cc(-c2cc(Nc3ccc(N4CCN(CCc5ccc(N6CCC(=O)NC6=O)cc5)C[C@@H]4C)cn3)ncn2)ccc1[C@@H](C)NC(=O)c1nc(C(C)(C)C)no1 [Example 1, 3-tert-butyl-N-[(1R)-1-{4-[6-({5-[(2S)-4-{2-[4-(2,4-dioxo-1,3-diazinan-1-yl)phenyl]ethyl}-2-methylpiperazin-1-yl]pyridin-2-yl}amino)pyrimidin-4-yl]-2-methylphenyl}ethyl]-1,2,4-oxadiazole-5-carboxamide] | 4.08 nM | 1260 nM
Cc1cc(-c2cc(Nc3ccc(N4CCN(CCc5ccc(N6CCC(=O)NC6=O)cc5)C[C@H]4C)cn3)ncn2)ccc1[C@@H](C)NC(=O)c1nc(C(C)(C)C)no1 [Example 2, 3-tert-butyl-N-[(1R)-1-{4-[6-({5-[(2R)-4-{2-[4-(2,4-dioxo-1,3-diazinan-1-yl)phenyl]ethyl}-2-methylpiperazin-1-yl]pyridin-2-yl}amino)pyrimidin-4-yl]-2-methylphenyl}ethyl]-1,2,4-oxadiazole-5-carboxamide] | 5.93 nM | 749 nM
Cc1cc(-c2cc(Nc3ccc(N4CCN(CCc5ccc(N6CCC(=O)NC6=O)cc5)CC4)cn3)ncn2)ccc1[C@@H](C)NC(=O)c1nc(C(C)(C)C)no1 [Example 3, 3-tert-butyl-N-{(1R)-1-[4-(6-{[5-(4-{2-[4-(2,4-dioxo-1,3-diazinan-1-yl)phenyl]ethyl}piperazin-1-yl)pyridin-2-yl]amino}pyrimidin-4-yl)-2-methylphenyl]ethyl}-1,2,4-oxadiazole-5-carboxamide] | 2.88 nM | 9570 nM
Cc1cc(-c2cc(Nc3ccc(N4CCN(CCc5ccc(N6CCC(=O)NC6=O)c(F)c5)C[C@@H]4C)cn3)ncn2)ccc1[C@@H](C)NC(=O)c1nc(C(C)(C)C)no1 [Example 4, 3-tert-butyl-N-[(1R)-1-{4-[6-({5-[(2S)-4-{2-[4-(2,4-dioxo-1,3-diazinan-1-yl)-3-fluorophenyl]ethyl}-2-methylpiperazin-1-yl]pyridin-2-yl}amino)pyrimidin-4-yl]-2-methylphenyl}ethyl]-1,2,4-oxadiazole-5-carboxamide] | 7.62 nM | ≥ 10000 nM
Cc1cc(-c2cc(Nc3ccc(N4CCN(CCc5ccc(N6CCC(=O)NC6=O)c(F)c5)C[C@H]4C)cn3)ncn2)ccc1[C@@H](C)NC(=O)c1nc(C(C)(C)C)no1 [Example 5, 3-tert-butyl-N-[(1R)-1-{4-[6-({5-[(2R)-4-{2-[4-(2,4-dioxo-1,3-diazinan-1-yl)-3-fluorophenyl]ethyl}-2-methylpiperazin-1-yl]pyridin-2-yl}amino)pyrimidin-4-yl]-2-methylphenyl}ethyl]-1,2,4-oxadiazole-5-carboxamide] | 6 nM | 648 nM
CC[C@H]1CN(CCc2ccc(N3CCC(=O)NC3=O)cc2)CCN1c1ccc(Nc2cc(-c3ccc([C@@H](C)NC(=O)c4nc(C(C)(C)C)no4)c(C)c3)ncn2)nc1 [Example 6, 3-tert-butyl-N-[(1R)-1-{4-[6-({5-[(2S)-4-{2-[4-(2,4-dioxo-1,3-diazinan-1-yl)phenyl]ethyl}-2-ethylpiperazin-1-yl]pyridin-2-yl}amino)pyrimidin-4-yl]-2-methylphenyl}ethyl]-1,2,4-oxadiazole-5-carboxamide] | 2.45 nM | 378 nM
CC[C@H]1CN(CCc2ccc(N3CCC(=O)NC3=O)c(F)c2)CCN1c1ccc(Nc2cc(-c3ccc([C@@H](C)NC(=O)c4nc(C(C)(C)C)no4)c(C)c3)ncn2)nc1 [Example 7, 3-tert-butyl-N-[(1R)-1-{4-[6-({5-[(2S)-4-{2-[4-(2,4-dioxo-1,3-diazinan-1-yl)-3-fluorophenyl]ethyl}-2-ethylpiperazin-1-yl]pyridin-2-yl}amino)pyrimidin-4-yl]-2-methylphenyl}ethyl]-1,2,4-oxadiazole-5-carboxamide] | 18.7 nM | 609 nM
CC[C@@H]1CN(CCc2ccc(N3CCC(=O)NC3=O)cc2)CCN1c1ccc(Nc2cc(-c3ccc([C@@H](C)NC(=O)c4nc(C(C)(C)C)no4)c(C)c3)ncn2)nc1 [Example 8, 3-tert-butyl-N-[(1R)-1-{4-[6-({5-[(2R)-4-{2-[4-(2,4-dioxo-1,3-diazinan-1-yl)phenyl]ethyl}-2-ethylpiperazin-1-yl]pyridin-2-yl}amino)pyrimidin-4-yl]-2-methylphenyl}ethyl]-1,2,4-oxadiazole-5-carboxamide] | 4.04 nM | 3380 nM
Cc1cc(-c2cc(Nc3ccc(N4CCN(CCc5ccc(N6CCC(=O)NC6=O)cc5)CC4(C)C)cn3)ncn2)ccc1[C@@H](C)NC(=O)c1nc(C(C)(C)C)no1 [Example 9, 3-tert-butyl-N-{(1R)-1-[4-(6-{[5-(4-{2-[4-(2,4-dioxo-1,3-diazinan-1-yl)phenyl]ethyl}-2,2-dimethylpiperazin-1-yl)pyridin-2-yl]amino}pyrimidin-4-yl)-2-methylphenyl]ethyl}-1,2,4-oxadiazole-5-carboxamide] | 9.61 nM | 658 nM
Cc1cc(-c2cc(Nc3ccc(N4CCN(CCc5ccc(N6CCC(=O)NC6=O)cc5)CC4)cn3)ncn2)c(F)cc1[C@@H](C)NC(=O)c1nc(C(C)(C)C)no1 [Example 12, 3-tert-butyl-N-{(1R)-1-[4-(6-{[5-(4-{2-[4-(2,4-dioxo-1,3-diazinan-1-yl)phenyl]ethyl}piperazin-1-yl)pyridin-2-yl]amino}pyrimidin-4-yl)-5-fluoro-2-methylphenyl]ethyl}-1,2,4-oxadiazole-5-carboxamide] | 2.27 nM | 2010 nM
Cc1cc(-c2cc(Nc3ccc(N4CCN(CCc5ccc(N6CCC(=O)NC6=O)cc5)C[C@@H]4C(C)C)cn3)ncn2)ccc1[C@@H](C)NC(=O)c1nc(C(C)(C)C)no1 [Example 13, 3-tert-butyl-N-[(1R)-1-{4-[6-({5-[(2S)-4-{2-[4-(2,4-dioxo-1,3-diazinan-1-yl)phenyl]ethyl}-2-(propan-2-yl)piperazin-1-yl]pyridin-2-yl}amino)pyrimidin-4-yl]-2-methylphenyl}ethyl]-1,2,4-oxadiazole-5-carboxamide] | 17.3 nM | ≥ 10000 nM
C[C@@H](NC(=O)c1nc(C(C)(C)C)no1)c1ccc(-c2cc(Nc3ccc(N4CCN(CCc5ccc(N6CCC(=O)NC6=O)cc5)C[C@@H]4C)cn3)ncn2)cc1Cl [Example 14, 3-tert-butyl-N-[(1R)-1-{2-chloro-4-[6-({5-[(2S)-4-{2-[4-(2,4-dioxo-1,3-diazinan-1-yl)phenyl]ethyl}-2-methylpiperazin-1-yl]pyridin-2-yl}amino)pyrimidin-4-yl]phenyl}ethyl]-1,2,4-oxadiazole-5-carboxamide] | 7.91 nM | 2330 nM
Cc1cc(-c2cc(Nc3ccc(N4CCN(CCc5ccc(N6CCC(=O)NC6=O)cc5)C[C@@H]4C)cc3)ncn2)ccc1[C@@H](C)NC(=O)c1nc(C(C)(C)C)no1 [Example 18] | 15.6 nM | 1250 nM
Cc1cc(-c2cc(Nc3ccc(CCN4CCN(c5ccc(N6CCC(=O)NC6=O)cc5)CC4)cn3)ncn2)ccc1[C@@H](C)NC(=O)c1nc(C(C)(C)C)no1 [Example 19] | 3 nM | ≥ 10000 nM
